Series [1] has as its target T1, rat histamine H3 receptors (Rattus norvegicus, UniProt Q9QYN8).
T1 construct: Frozen rat frontal brain or frozen human post-mortem frontal brain is homogenized; from tissue; host or cells: rat frontal brain membranes
The experiment in a line: Rat H3 binding, 3H-N-methylhistamine displacement in frontal brain membranes. Conditions: radioligand 1 nM 3H-N-methylhistamine, 1-hour incubation. How it is done:
The in vitro affinity of the compounds in the present invention at the rat or human histamine H3 receptors can be determined according to the following procedure. Frozen rat frontal brain or frozen human post-mortem frontal brain is homogenized in 20 volumes of cold 50 mM Tris.HCl containing 2 mM MgCl2 (pH to 7.4 at 4° C.). The homogenate is then centrifuged at 45,000 G for 10 minutes. The supernatant is decanted and the membrane pellet re-suspended by Polytron in cold 50 mM Tris.HCl containing 2 mM MgCl2 (pH to 7.4 at 4 degrees C.) and centrifuged again. The final pellet is re-suspended in 50 mM Tris HCl containing 2 mM MgCl2 (pH to 7.4 at 25 degrees C.) at a concentration of 12 mg/mL. Dilutions of compounds are made in 10% DMSO/50 mM Tris buffer (pH 7.4) (at 10×final concentration, so that the final DMSO concentration is 1%). Incubations are initiated by the addition of membranes (200 microliters) to 96-well V-bottom polypropylene plates containing 25 microliters of drug dilutions and 25 microliters of radioligand (1 nM final concentration ^3H-N-methylhistamine). After a 1-hour incubation, assay samples are rapidly filtered through Whatman GF/B filters and rinsed with ice-cold 50 mM Tris buffer (pH 7.4) using a Skatron cell harvester. Radioactivity is quantified using a BetaPlate scintillation counter.

T1 sequence (Q9QYN8 whole entry): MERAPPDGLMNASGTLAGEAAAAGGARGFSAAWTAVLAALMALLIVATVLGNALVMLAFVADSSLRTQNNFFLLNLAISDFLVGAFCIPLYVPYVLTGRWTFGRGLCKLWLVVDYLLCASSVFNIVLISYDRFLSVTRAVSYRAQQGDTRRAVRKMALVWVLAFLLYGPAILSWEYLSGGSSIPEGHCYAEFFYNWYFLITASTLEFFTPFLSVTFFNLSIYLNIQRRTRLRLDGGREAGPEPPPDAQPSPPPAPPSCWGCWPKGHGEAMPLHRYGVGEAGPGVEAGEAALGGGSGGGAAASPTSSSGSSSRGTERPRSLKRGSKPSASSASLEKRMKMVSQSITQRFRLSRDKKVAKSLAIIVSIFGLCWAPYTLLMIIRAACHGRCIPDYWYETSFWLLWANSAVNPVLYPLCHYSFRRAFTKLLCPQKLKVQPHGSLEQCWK

Turning to `Cl.c1cc2c(cc1OCCCN1CCCCC1)CCC(CN1CCCC1)C2` (single isomer, unassigned; (-)) [10 (−), (−)-1-[3-(6-Pyrrolidin-1-ylmethyl-5,6,7,8-tetrahydro-naphthalen-2-yloxy)-propyl]-piperidine hydrochloride], the melting point (commonly the temperature of the solid-liquid transition) was 286.6 to 286.8 °C. Further, the Ki (usually a measure of affinity in units of concentration, obtained from inhibition or displacement) in series [1] amounted to 1.1 nM.
